# Assay results reported in US20100292279A1, “Bis-(Sulfonylamino) Derivatives in Therapy” (ASTRAZENECA AB, priority 2009, published 2010).
# Biological target: T1, human mPGES-1 (Homo sapiens, UniProt O14684)
# T1 construct: host or cells: microsomes
# T1 sequence (O14684 1-152): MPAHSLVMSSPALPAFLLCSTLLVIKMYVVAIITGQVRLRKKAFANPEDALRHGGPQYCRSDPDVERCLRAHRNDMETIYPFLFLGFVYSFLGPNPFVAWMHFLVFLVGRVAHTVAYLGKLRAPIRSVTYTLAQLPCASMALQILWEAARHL
# Assay: Microsomal prostaglandin E synthase biochemical assay
# Conditions: microsome preparation containing human mPGES-1; substrate PGH2 10.8 μM, GSH 2.5 mM, pH 6.8; PGE2 by HTRF; average of at least n=2
# Experimental: Compounds were tested as inhibitors of microsomal prostaglandin E synthase activity in microsomal prostaglandin E synthase assays and whole cell assays. These assays measure prostaglandin E2 (PGE2) synthesis which is taken as a measure of prostaglandin E synthase activity. Microsomal prostaglandin E synthase biochemical assays used microsomal prostaglandin E synthase-1 in microsomal preparations. The source of the microsomes can be for example interleukin-1β-stimulated human A549 cells (which express human mPGES-1) or Sf9 cells transfected with plasmids encoding human mPGES-1 cDNA.
# A solution of test compound was added to a diluted microsome preparation containing is human mPGES-1 and pre-incubated for 15 minutes in potassium phosphate buffer pH 6.8 with cofactor glutathione (GSH). Corresponding solutions without test compound were used as positive controls, and corresponding solutions without test compound and without microsomes were used as negative controls. The enzymatic reaction was then started by addition of the substrate PGH2 in an organic solution (dry acetonitrile).
# The reaction was stopped after one minute by adding an acidic solution (pH 1.9) of ferric chloride and citrate (final concentrations 7 mM and 47 mM respectively), by which the PGH2 was sequestered (the PGH2 is reduced to mainly 12-hydroxy heptadecatrineoic acid (12-HHT) which is not detected by the subsequent PGE2 detection step). The resulting solution was then pH neutralized by addition of potassium phosphate buffer, prior to diluting an aliquot of the resulting solution in a weak potassium phosphate buffer (50 mM, pH 6.8) containing 0.2% BSA (w/v). […] The PGE2 formed was quantified by use of a commercial HTRF based kit (catalogue #62PG2PEC or #62P2APEC from Cisbio International). 100% activity was defined as the PGE2 production in positive controls subtracted by the PGE2 production in the negative controls. IC50 values were then determined using standard procedures.
row,Structure (SMILES),IC50 [nM]
1,"CCCC(C)C#Cc1ccc(C(=O)NS(=O)(=O)c2ccccc2S(N)(=O)=O)cc1OC (stereo not drawn) [Example 37, 3-Methoxy-4-(3-methylhex-1-ynyl)-N-(2-sulfamoylphenylsulfonyl)benzamide]",35
2,"NS(=O)(=O)c1ccccc1S(=O)(=O)NC(=O)c1ccc(C#Cc2ccc(C(F)(F)F)cc2)c(CO)c1 [Example 39, 3-(Hydroxymethyl)-N-(2-sulfamoylphenylsulfonyl)-4-((4-(trifluoromethyl)phenyl)ethynyl)benzamide]",22
3,"NS(=O)(=O)c1ccccc1S(=O)(=O)NC(=O)c1ccc(C#CCCCCCl)cc1 [Example 42, 4-(6-Chlorohex-1-ynyl)-N-(2-sulfamoylphenylsulfonyl)benzamide]",37
4,"CC(C)C#Cc1ncc(C(=O)NS(=O)(=O)c2ccccc2S(N)(=O)=O)cc1Cl [Example 44, 5-Chloro-6-(3-methylbut-1-ynyl)-N-(2-sulfamoylphenylsulfonyl)nicotinamide]",59
5,"CC(C)C#Cc1ncc(C(=O)NS(=O)(=O)c2ccccc2S(N)(=O)=O)cc1F [Example 46, 5-Fluoro-6-(3-methylbut-1-ynyl)-N-(2-sulfamoylphenylsulfonyl)nicotinamide]",200
6,"CC(C)C#Cc1ccc(C(=O)NS(=O)(=O)c2ccccc2S(N)(=O)=O)cc1OCCOCC(F)(F)F [Example 51, 4-(3-Methylbut-1-ynyl)-N-(2-sulfamoylphenylsulfonyl)-3-(2-(2,2,2-trifluoroethoxy)ethoxy)benzamide]",26
7,"CC(C)C#Cc1ccc(C(=O)NS(=O)(=O)c2ccccc2S(N)(=O)=O)cc1OCC(F)F [Example 52, 3-(2,2-Difluoroethoxy)-4-(3-methylbut-1-ynyl)-N-(2-sulfamoylphenylsulfonyl)benzamide]",50
8,"CC(C)C#Cc1ccc(C(=O)NS(=O)(=O)c2ccccc2S(N)(=O)=O)cc1OCC(F)(F)F [Example 53, 4-(3-Methylbut-1-ynyl)-N-(2-sulfamoylphenylsulfonyl)-3-(2,2,2-trifluoroethoxy)benzamide]",25
9,"CC(C)C#Cc1ccc(C(=O)NS(=O)(=O)c2ccccc2S(N)(=O)=O)cc1OC(F)(F)F [Example 54, 4-(3-Methylbut-1-ynyl)-N-(2-sulfamoylphenylsulfonyl)-3-(trifluoromethoxy)benzamide]",28
10,"CC(C)C#Cc1ccc(C(=O)NS(=O)(=O)c2ccccc2S(N)(=O)=O)cc1COCCC(F)(F)F [Example 55, 4-(3-Methylbut-1-ynyl)-N-(2-sulfamoylphenylsulfonyl)-3-((3,3,3-trifluoropropoxy)methyl)benzamide]",80
11,"CC(C)C#Cc1ccc(C(=O)NS(=O)(=O)c2ccccc2S(N)(=O)=O)cc1COCC(F)(F)F [Example 56, 4-(3-Methylbut-1-ynyl)-N-(2-sulfamoylphenylsulfonyl)-3-((2,2,2-trifluoroethoxy)methyl)benzamide]",100
12,"CC(C)C#Cc1ccc(C(=O)NS(=O)(=O)c2ccccc2S(N)(=O)=O)cc1OCC(F)(F)C(F)F [Example 58, 4-(3-Methylbut-1-ynyl)-N-(2-sulfamoylphenylsulfonyl)-3-(2,2,3,3-tetrafluoropropoxy)benzamide]",24
13,"CC(C)(C)C#Cc1ccc(C(=O)NS(=O)(=O)c2ccccc2S(N)(=O)=O)cc1OCCC(F)(F)F [Example 60, 4-(3,3-Dimethylbut-1-ynyl)-N-(2-sulfamoylphenylsulfonyl)-3-(3,3,3-trifluoropropoxy)benzamide]",30
14,"CC(C)(C)C#Cc1ccc(C(=O)NS(=O)(=O)c2ccccc2S(N)(=O)=O)cc1OCCOCC(F)(F)F [Example 61, 4-(3,3-Dimethylbut-1-ynyl)-N-(2-sulfamoylphenylsulfonyl)-3-(2-(2,2,2-trifluoroethoxy)ethoxy)benzamide]",27
15,"CC(C)C#Cc1ccc(C(=O)NS(=O)(=O)c2ccccc2S(N)(=O)=O)cc1OCCCC(F)(F)F [Example 64, 4-(3-Methylbut-1-ynyl)-N-(2-sulfamoylphenylsulfonyl)-3-(4,4,4-trifluorobutoxy)benzamide]",15

# Further compounds by falling IC50, results first:
row,IC50 [nM],Structure (SMILES)
1,18,"NS(=O)(=O)c1ccccc1S(=O)(=O)NC(=O)c1ccc(C#CC(C2CC2)C2CC2)c(OCCC(F)(F)F)c1 [Example 36, 4-(3,3-Dicyclopropylprop-1-ynyl)-N-(2-sulfamoylphenylsulfonyl)-3-(3,3,3-trifluoropropoxy)benzamide]"
2,18,"CC(C)C#Cc1ccc(C(=O)NS(=O)(=O)c2ccccc2S(N)(=O)=O)cc1OCCC(F)(F)F [Example 45, 4-(3-Methylbut-1-ynyl)-N-(2-sulfamoylphenylsulfonyl)-3-(3,3,3-trifluoropropoxy)benzamide]"
3,17,"Cc1cc(C(=O)NS(=O)(=O)c2ccccc2S(N)(=O)=O)ccc1C#CC(C)C [Example 50, 3-Methyl-4-(3-methylbut-1-ynyl)-N-(2-sulfamoylphenylsulfonyl)benzamide]"
4,14,"CCCC(C)C#Cc1ccc(C(=O)NS(=O)(=O)c2ccccc2S(N)(=O)=O)cc1 (stereo not drawn) [Example 40, 4-(3-Methylhex-1-ynyl)-N-(2-sulfamoylphenylsulfonyl)benzamide]"
5,13,"CC(C)C#Cc1ncc(C(=O)NS(=O)(=O)c2ccccc2S(N)(=O)=O)cc1OCCC(F)(F)F [Example 49, 6-(3-Methylbut-1-ynyl)-N-(2-sulfamoylphenylsulfonyl)-5-(3,3,3-trifluoropropoxy)nicotinamide]"
6,12,"NS(=O)(=O)c1ccccc1S(=O)(=O)NC(=O)c1ccc(C#CC2CCCC2)c(OCCC(F)F)c1 [Example 68, 4-(Cyclopentylethynyl)-3-(3,3-difluoropropoxy)-N-(2-sulfamoylphenylsulfonyl)benzamide]"
7,10,NS(=O)(=O)c1ccccc1S(=O)(=O)NC(=O)c1cnc(C#Cc2ccc(C(F)(F)F)cc2)c(OCCC(F)(F)F)c1 [Example 48]
8,9.6,"NS(=O)(=O)c1ccccc1S(=O)(=O)NC(=O)c1ccc(C#CC2CCCC2)c(OCCOCC(F)(F)F)c1 [Example 67, 4-(Cyclopentylethynyl)-N-(2-sulfamoylphenylsulfonyl)-3-(2-(2,2,2-trifluoroethoxy)ethoxy)benzamide]"
9,9.4,"NS(=O)(=O)c1ccccc1S(=O)(=O)NC(=O)c1ccc(C#CC2CCCC2)c(OCCC(F)(F)F)c1 [Example 66, 4-(Cyclopentylethynyl)-N-(2-sulfamoylphenylsulfonyl)-3-(3,3,3-trifluoropropoxy)benzamide]"
10,9.3,"NS(=O)(=O)c1ccccc1S(=O)(=O)NC(=O)c1ccc(C#Cc2ccccc2)c(OCCOCC(F)(F)F)c1 [Example 63, 4-(Phenylethynyl)-N-(2-sulfamoylphenylsulfonyl)-3-(2-(2,2,2-trifluoroethoxy)ethoxy)benzamide]"
11,9.1,"NS(=O)(=O)c1ccccc1S(=O)(=O)NC(=O)c1ccc(-c2cc3ccccc3o2)c(OCCOCC(F)(F)F)c1 [Example 62, 4-(Benzofuran-2-yl)-N-(2-sulfamoylphenylsulfonyl)-3-(2-(2,2,2-trifluoroethoxy)ethoxy)benzamide]"
12,8.5,"NS(=O)(=O)c1ccccc1S(=O)(=O)NC(=O)c1ccc(-c2cc3ccccc3o2)c(F)c1 [Example 57, 4-(Benzofuran-2-yl)-3-fluoro-N-(2-sulfamoylphenylsulfonyl)benzamide]"
13,8.5,"NS(=O)(=O)c1ccccc1S(=O)(=O)NC(=O)c1ccc(-c2cc3ccccc3o2)c(OCCC(F)(F)F)c1 [Example 59, 4-(Benzofuran-2-yl)-N-(2-sulfamoylphenylsulfonyl)-3-(3,3,3-trifluoropropoxy)benzamide]"
14,7.3,"COc1cc(C(=O)NS(=O)(=O)c2ccccc2S(N)(=O)=O)ccc1C#Cc1ccc(C(F)(F)F)cc1 [Example 38, 3-Methoxy-N-(2-sulfamoylphenylsulfonyl)-4-((4-(trifluoromethyl)phenyl)ethynyl)benzamide]"
15,6.5,NS(=O)(=O)c1ccccc1S(=O)(=O)NC(=O)c1ccc(C#Cc2ccc(C(F)(F)F)cc2)nc1 [Example 43]
16,6.5,"NS(=O)(=O)c1ccccc1S(=O)(=O)NC(=O)c1cnc(C#Cc2ccc(C(F)(F)F)cc2)c(F)c1 [Example 47, 5-Fluoro-N-(2-sulfamoylphenylsulfonyl)-6-((4-(trifluoromethyl)phenyl)ethynyl)nicotinamide]"
17,6.2,"NS(=O)(=O)c1ccccc1S(=O)(=O)NC(=O)c1ccc(C#Cc2ccccc2)c(OCCC(F)(F)F)c1 [Example 65, 4-(Phenylethynyl)-N-(2-sulfamoylphenylsulfonyl)-3-(3,3,3-trifluoropropoxy)benzamide]"
18,5.7,"NS(=O)(=O)c1ccccc1S(=O)(=O)NC(=O)c1ccc(C#Cc2ccc(C(F)(F)F)cc2)cc1 [Example 41, N-(2-Sulfamoylphenylsulfonyl)-4-((4-(trifluoromethyl)phenyl)ethynyl)benzamide]"
